From US20250275951A1, “DRUGS TARGETING INFLAMMATION FOR THE TREATMENT OF OSTEOARTHRITIS AND OTHER INFLAMMATORY DISEASES” (The Board of Trustees of the Leland Stanford Junior …, priority 2020, published 2025)

Experiments:
DMM mouse model for OA = assay: Cartilage degeneration scoring of safranin-O stained joint sections in DMM mouse model for OA; assay type: in vivo
Procedure: Histologic outcomes: 20 wks after DMM, mice are sacrificed, and OA assessed histologically by a blinded examiner scoring cartilage degeneration through Safranin-O stained sections, and scoring synovitis and osteophytes through H&E stained sections.
Treatment with pharmacologic agents. Beginning 24 hrs after DMM, mice (n=10 per experimental arm) are treated by injection or oral gavage for 12 wks with either vehicle, or one of the agents as detailed in Table 1.
Histologic analysis. Histologic analysis of mouse stifle joints occurs 20-wks after surgery. Cartilage degeneration is assessed through scoring of Safranin-O stained sections and synovitis and osteophyte formation assessed through scoring of H&E stained sections. Significance was assessed by unpaired 2-tailed Mann-Whitney U test, with *P<0.05, **P<0.01, ***P<0.001.
After 12 weeks of treatment, mice were sacrificed, and the stifle joints harvested for histologic analysis, and safranin-O stained joint tissue sections were scored by a blinded examiner for the degree of cartilage degeneration. […] Significance was assessed by unpaired 2-tailed Mann-Whitney U test, with *P<0.05, **P<0.01, ***P<0.001, N.S. non-significant.
After 12 weeks of treatment, mice were sacrificed, and the stifle joints harvested for histologic analysis, and safranin-O stained joint tissue sections were scored by a blinded examiner for the degree of cartilage degeneration. […] Significance was assessed by unpaired 2-tailed Mann-WhitneyU test, with *P<0.05, **P<0.01, ***P<0.001.
Mice were then sacrificed, and the stifle joints harvested for histologic analysis. (A) Safranin-O stained joint tissue sections were scored by a blinded examiner for the degree of cartilage degeneration. (B) Representative safranin-O stained sections from each group are presented. […] Significance was assessed by unpaired 2-tailed Mann-Whitney U test, with *P<0.05, **P<0.01, ***P<0.001.

[1] = system: human OA synovial tissue organoid; assay: Human OA synovial tissue organoid stimulation assay (qPCR); assay type: cell-based; conditions: rupatadine 1 μM, fenofibrate 1 μM or both; 24 hr with human OA synovial fluid; vs vehicle
Procedure: Human OA synovium was obtained at the time of arthroplasty and cultured overnight in tissue culture medium with human OA synovial fluid.
The arthroplasty synovium was then washed with media, cut into approximately 2 mm pieces, and individual organoid pieces further stimulated for 24 hr with human OA synovial fluid in the presence of the test small molecule compounds and combinations including: vehicle control; rupatadine 1 μM; fenofibrate 1 μM; or rupatadine 1 μM+fenofibrate 1 μM. The organoids were then harvested, total RNA extracted, reverse transcription performed, followed by qPCR to quantitate levels of RNA encoding the inflammatory lipid PAF biosynthesis enzyme (Ipcat2) gene expression as well as PAF receptor (ptafr) gene expression.

[2] = in vivo; cited from earlier work

SMILES: Cc1cncc(CN2CCC(=C3c4ccc(Cl)cc4CCc4cccnc43)CC2)c1 [Rupatadine]
- severity / development of OA (cartilage degeneration scores) (DMM mouse model for OA; C57Bl/6 mice, oral gavage from 1 week after DMM for 3 months, rupatadine 20 μg, fenofibrate 40 μg, or both): decreased the severity of OA
- severity of OA-related cartilage degeneration following DMM (DMM mouse model for OA; WT mice, vs vehicle (combination also vs either drug alone), Example 1, dose not given at place): significantly less severe OA-related cartilage degeneration
- PAF receptor (ptafr) gene expression [1]: decreased
- inflammatory lipid PAF biosynthesis enzyme (Ipcat2) gene expression [1]: decreased

SMILES: CC(C)(Oc1ccc(CCNC(=O)c2ccc(Cl)cc2)cc1)C(=O)O [Bezafibrate]
- Bioavailability [2]: 100%

SMILES: CC(C)c1c(C(=O)Nc2ccccc2)c(-c2ccccc2)c(-c2ccc(F)cc2)n1CC[C@@H](O)C[C@@H](O)CC(=O)O [Atorvastatin]
- prevention of OA (quantification of cartilage degeneration 20 wks post-DMM) (DMM mouse model for OA; C57BL/6J wild-type mice, atorvastatin 0.5 mg/kg for 12 wks following DMM vs vehicle, p=0.0513): does not prevent OA
- development / severity of OA following DMM (DMM mouse model for OA; mice, dose not given at place): failure of atorvastatin to prevent OA

SMILES: O=C1[C@H](CC[C@H](O)c2ccc(F)cc2)[C@@H](c2ccc(O)cc2)N1c1ccc(F)cc1 [Ezetimibe]
- Bioavailability [2]: variable

SMILES: Cc1ccc(C)c(OCCCC(C)(C)C(=O)O)c1 [Gemfibrozil]
- Bioavailability [2]: 100%

SMILES: CCc1ccc(CCOc2ccc(CC3SC(=O)NC3=O)cc2)nc1 (stereo not shown) [Pioglitazone]
- Bioavailability [2]: 83%
